Numbers after ± are expanded uncertainties.
Experiments:
[1] = for viscosity: 100 kPa, Liquid, Falling or rolling sphere viscometry
[2] = Molar enthalpy of transition or fusion; settings: DSC
[3] = xn = mol fraction of the nth substance listed; settings: 100 kPa, Liquid, x2 = 0; for viscosity: Falling or rolling sphere viscometry; for mass density: Vibrating tube method

CCCCC[N+]1(C)CCCCC1.[Br-] [1-methyl-1-pentylpiperidinium bromide]
Settings | Molar enthalpy of transition or fusion [kcal/mol] | Normal melting temperature [°C]
[1], Crystal 1, DTA | – | 173.7 ± 0.41
[2], Crystal 1 | 2.11 ± 0.263 | –

CCCC[N+]1(C)CCOCC1.[Br-] [4-butyl-4-methylmorpholinium bromide]
Settings | Molar enthalpy of transition or fusion [kcal/mol] | Normal melting temperature [°C]
[1], Crystal 1, DTA | – | 211.32 ± 0.41
[2], Crystal 1 | 3.37 ± 0.263 | –

CCCCC[N+]1(C)CCOCC1.[Br-] [4-methyl-4-pentylmorpholinium bromide]
Settings | Molar enthalpy of transition or fusion [kcal/mol] | Normal melting temperature [°C]
[1], Crystal 1, DTA | – | 194 ± 0.41
[2], Crystal 1 | 1.94 ± 0.263 | –

CCC[N+]1(C)CCOCC1.[Br-] [4-methyl-4-propylmorpholinium bromide]
Settings | Molar enthalpy of transition or fusion, Crystal 1 [kcal/mol] | Molar enthalpy of transition or fusion, Crystal 2 [kcal/mol] | Normal melting temperature, Crystal 1, DTA [°C] | Triple point temperature, Crystal 2, DSC [K]
[1] | – | – | 180.79 ± 0.41 | 341.13 ± 0.77
[2] | 2.72 ± 0.263 | 0.55 ± 0.239 | – | –

O [water]
[1]
Settings | viscosity [mPa·s]
298.15 K | 0.912 ± 0.091
303.15 K | 0.819 ± 0.082
308.15 K | 0.739 ± 0.074
313.15 K | 0.671 ± 0.067
318.15 K | 0.611 ± 0.061
323.15 K | 0.559 ± 0.056
328.15 K | 0.514 ± 0.052
333.15 K | 0.474 ± 0.048
338.15 K | 0.439 ± 0.044
343.15 K | 0.408 ± 0.041

Settings | Normal melting temperature [°C]
[1], Crystal, visual observation | 0.00 ± 0.39

O [water] + CCCCC[N+]1(C)CCCCC1.[Br-]
[3]
Settings | mass density [kg/m3] | viscosity [mPa·s]
298.15 K | – | 0.912 ± 0.091
303.15 K | – | 0.819 ± 0.082
308.15 K | – | 0.739 ± 0.074
313.15 K | – | 0.671 ± 0.067
318.15 K | 990.1 ± 1 | 0.611 ± 0.061
323.15 K | 987.9 ± 1 | 0.559 ± 0.056
328.15 K | 985.6 ± 1 | 0.514 ± 0.052
333.15 K | 983.2 ± 1 | 0.474 ± 0.048
338.15 K | 980.3 ± 1 | 0.439 ± 0.044
343.15 K | 978.1 ± 1 | 0.408 ± 0.041

O [water] + CCCCC[N+]1(C)CCOCC1.[Br-]
[3]
Settings | mass density [kg/m3] | viscosity [mPa·s]
298.15 K | – | 0.912 ± 0.091
303.15 K | – | 0.819 ± 0.082
308.15 K | – | 0.739 ± 0.074
313.15 K | – | 0.671 ± 0.067
318.15 K | 990.1 ± 1 | 0.611 ± 0.061
323.15 K | 987.9 ± 1 | 0.559 ± 0.056
328.15 K | 985.6 ± 1 | 0.514 ± 0.052
333.15 K | 983.2 ± 1 | 0.474 ± 0.048
338.15 K | 980.3 ± 1 | 0.439 ± 0.044
343.15 K | 978.1 ± 1 | 0.408 ± 0.041

O [water] + CCCC[N+]1(C)CCOCC1.[Br-]
[3]
Settings | mass density [kg/m3] | viscosity [mPa·s]
298.15 K | – | 0.912 ± 0.091
303.15 K | – | 0.819 ± 0.082
308.15 K | – | 0.739 ± 0.074
313.15 K | – | 0.671 ± 0.067
318.15 K | 990.1 ± 1 | 0.611 ± 0.061
323.15 K | 987.9 ± 1 | 0.559 ± 0.056
328.15 K | 985.6 ± 1 | 0.514 ± 0.052
333.15 K | 983.2 ± 1 | 0.474 ± 0.048
338.15 K | 980.3 ± 1 | 0.439 ± 0.044
343.15 K | 978.1 ± 1 | 0.408 ± 0.041

O [water] + CCC[N+]1(C)CCOCC1.[Br-]
[3]
Settings | mass density [kg/m3] | viscosity [mPa·s]
298.15 K | – | 0.912 ± 0.091
303.15 K | – | 0.819 ± 0.082
308.15 K | – | 0.739 ± 0.074
313.15 K | – | 0.671 ± 0.067
318.15 K | 990.1 ± 1 | 0.611 ± 0.061
323.15 K | 987.9 ± 1 | 0.559 ± 0.056
328.15 K | 985.6 ± 1 | 0.514 ± 0.052
333.15 K | 983.2 ± 1 | 0.474 ± 0.048
338.15 K | 980.3 ± 1 | 0.439 ± 0.044
343.15 K | 978.1 ± 1 | 0.408 ± 0.041
